# Source: patent US10300051B2, “Cyclopropylamines as LSD1 inhibitors” (priority 2014, dated 2019)
# Biological target: LSD-1 enzyme (Homo sapiens (Human), UniProt O60341)
# Type: biochemical
# Settings: not given
# Description: Example A: LSD1 Histone Demethylase Biochemical Assay
# LANCE LSD1/KDM1A demethylase assay—10 μL of 1 nM LSD-1 enzyme (ENZO BML-SE544-0050) in the assay buffer (50 mM Tris, pH 7.5, 0.01% Tween-20, 25 mM NaCl, 5 mM DTT) were preincubated for 1 hour at 25° C. with 0.8 μL compound/DMSO dotted in black 384 well polystyrene plates. […] Reactions were stopped by addition of 10 μL 1× LANCE Detection Buffer (PerkinElmer CR97-100) supplemented with 1.5 nM Eu-anti-unmodified H3K4 Antibody (PerkinElmer TRF0404), and 225 nM LANCE Ultra Streptavidin (PerkinElmer TRF102) along with 0.9 mM Tranylcypromine-HCl (Millipore 616431). After stopping the reactions plates were incubated for 30 minutes and read on a PHERAstar FS plate reader (BMG Labtech).
row,Compound,IC50
1,"CN(C)CC(=O)N1CCC(CN[C@@H]2C[C@H]2c2ccccc2)(Cc2cccc(C#N)c2)CC1 [Example 57, 3-{[1-[(dimethylamino)acetyl]-4-({[(1R,2S)-2-phenylcyclopropyl]amino}methyl)piperidin-4-yl]methyl}benzonitrile]",< 100 nM

# Same assay, conditions: 1 nM LSD-1 enzyme, 1 hour preincubation at 25° C., Biotin-labeled Histone H3 peptide substrate
row,Compound,IC50
1,"CCN1CCC(CN[C@@H]2C[C@H]2c2ccccc2)(Cc2cccc(C(=O)O)c2)CC1 [Example 29, 3-{[1-ethyl-4-({[(1R,2S)-2-phenylcyclopropyl]amino}methyl)piperidin-4-yl]methyl}benzoic Acid]",< 100 nM
2,"O=C(O)c1cccc(CC2(CN[C@@H]3C[C@H]3c3ccccc3)CCN(CC3CC3)CC2)c1 [Example 30, 3-{[1-(cyclopropylmethyl)-4-({[(1R,2S)-2-phenylcyclopropyl]amino}methyl)piperidin-4-yl]methyl}benzoic Acid]",< 100 nM
3,"O=C(O)c1cccc(CC2(CN[C@@H]3C[C@H]3c3ccccc3)CCN(C3CCOCC3)CC2)c1 [Example 31, 3-{[4-({[(1R,2S)-2-phenylcyclopropyl]amino}methyl)-1-(tetrahydro-2H-pyran-4-yl)piperidin-4-yl]methyl}benzoic Acid]",< 100 nM
4,"O=C(O)c1cccc(CC2(CN[C@@H]3C[C@H]3c3ccccc3)CCN(Cc3ccccn3)CC2)c1 [Example 32, 3-{[4-({[(1R,2S)-2-phenylcyclopropyl]amino}methyl)-1-(pyridin-2-ylmethyl)piperidin-4-yl]methyl}benzoic Acid]",< 100 nM
5,"O=C(O)c1cccc(CC2(CN[C@@H]3C[C@H]3c3ccccc3)CCN(Cc3cccnc3)CC2)c1 [Example 33, 3-{[4-({[(1R,2S)-2-phenylcyclopropyl]amino}methyl)-1-(pyridin-3-ylmethyl)piperidin-4-yl]methyl}benzoic Acid]",< 100 nM
6,"CC(C)N1CCC(CN[C@@H]2C[C@H]2c2ccccc2)(Cc2cccc(C(=O)O)c2)CC1 [Example 34, 3-{[1-isopropyl-4-({[(1R,2S)-2-phenylcyclopropyl]amino}methyl)piperidin-4-yl]methyl}benzoic Acid]",< 100 nM
7,"O=C(O)CCN1CCC(CN[C@@H]2C[C@H]2c2ccccc2)(Cc2cccc(O[C@@H]3CCOC3)c2)CC1 [Example 35, 3-(4-({[(1R,2S)-2-phenylcyclopropyl]amino}methyl)-4-{3-[(3R)-tetrahydrofuran-3-yloxy]benzyl}piperidin-1-yl)propanoic Acid]",< 100 nM
8,"O=C(O)CCN1CCC(CN[C@@H]2C[C@H]2c2ccccc2)(Cc2cccc(OC3CCOCC3)c2)CC1 [Example 36, 3-{4-({[(1R,2S)-2-phenylcyclopropyl]amino}methyl)-4-[3-(tetrahydro-2H-pyran-4-yloxy)benzyl]piperidin-1-yl}propanoic Acid]",< 100 nM
9,"O=C(O)CCN1CCC(CN[C@@H]2C[C@H]2c2ccccc2)(COc2ccccc2F)CC1 [Example 37, 3-[4-[(2-fluorophenoxy)methyl]-4-({[(1R,2S)-2-phenylcyclopropyl]amino}methyl)piperidin-1-yl]propanoic Acid]",< 100 nM
10,"O=C(O)CCN1CCC(CN[C@@H]2C[C@H]2c2ccccc2)(COc2cccc(F)c2)CC1 [Example 38, 3-[4-[(3-fluorophenoxy)methyl]-4-({[(1R,2S)-2-phenylcyclopropyl]amino}methyl)piperidin-1-yl]propanoic Acid]",< 100 nM
11,"O=C(O)CCN1CCC(CN[C@@H]2C[C@H]2c2ccccc2)(COc2ccc(F)cc2)CC1 [Example 39, 3-[4-[(4-fluorophenoxy)methyl]-4-({[(1R,2S)-2-phenylcyclopropyl]amino}methyl)piperidin-1-yl]propanoic Acid]",< 100 nM
12,"O=C(O)CCN1CCC(CN[C@@H]2C[C@H]2c2ccccc2)(COCc2ccccc2)CC1 [Example 40, 3-[4-[(benzyloxy)methyl]-4-({[(1R,2S)-2-phenylcyclopropyl]amino}methyl)piperidin-1-yl]propanoic Acid]",< 100 nM
13,"N#Cc1ccc(CC2(CN[C@@H]3C[C@H]3c3ccccc3)CCN(CCC(=O)O)CC2)cc1 [Example 41, 3-[4-(4-cyanobenzyl)-4-({[(1R,2S)-2-phenylcyclopropyl]amino}methyl)piperidin-1-yl]propanoic Acid]",< 100 nM
14,"N#Cc1ccc(CC2(CN[C@@H]3C[C@H]3c3ccccc3)CCN(CCC(=O)O)CC2)c(F)c1 [Example 42, 3-[4-(4-cyano-2-fluorobenzyl)-4-({[(1R,2S)-2-phenylcyclopropyl]amino}methyl)piperidin-1-yl]propanoic Acid]",< 100 nM
15,"N#Cc1ccccc1OCC1(CN[C@@H]2C[C@H]2c2ccccc2)CCN(CCC(=O)O)CC1 [Example 43, 3-[4-[(2-cyanophenoxy)methyl]-4-({[(1R,2S)-2-phenylcyclopropyl]amino}methyl)piperidin-1-yl]propanoic Acid]",< 100 nM
16,"N#Cc1ccc(OCC2(CN[C@@H]3C[C@H]3c3ccccc3)CCN(CCC(=O)O)CC2)cc1 [Example 44, 3-[4-[(4-cyanophenoxy)methyl]-4-({[(1R,2S)-2-phenylcyclopropyl]amino}methyl)piperidin-1-yl]propanoic Acid]",< 100 nM

row,Compound,IC50
1,"O=C(O)CCN1CCC(CN[C@@H]2C[C@H]2c2ccccc2)(COc2ccc(F)cn2)CC1 [Example 45, 3-[4-{[(5-fluoropyridin-2-yl)oxy]methyl}-4-({[(1R,2S)-2-phenylcyclopropyl]amino}methyl)piperidin-1-yl]propanoic Acid]",< 100 nM
2,"O=C(O)CCN1CCC(CN[C@@H]2C[C@H]2c2ccccc2)(COc2ncc(F)cn2)CC1 [Example 46, 3-[4-{[(5-fluoropyrimidin-2-yl)oxy]methyl}-4-({[(1R,2S)-2-phenylcyclopropyl]amino}methyl)piperidin-1-yl]propanoic Acid]",< 100 nM
3,"N#Cc1cccc(OCC2(CN[C@@H]3C[C@H]3c3ccccc3)CCN(CCC(=O)O)CC2)c1 [Example 47, 3-[4-[(3-cyanophenoxy)methyl]-4-({[(1R,2S)-2-phenylcyclopropyl]amino}methyl)piperidin-1-yl]propanoic Acid]",< 100 nM
4,"COCC1(CN[C@@H]2C[C@H]2c2ccccc2)CCN(CC(C)(C)C(=O)O)CC1 [Example 48, 3-[4-(methoxymethyl)-4-({[(1R,2S)-2-phenylcyclopropyl]amino}methyl)piperidin-1-yl]-2,2-dimethylpropanoic Acid]",< 100 nM
5,"COCC1(CN[C@@H]2C[C@H]2c2ccccc2)CCN(C(=O)N2CCOCC2)CC1 [Example 49, (1R,2S)—N-{[4-(methoxymethyl)-1-(morpholin-4-ylcarbonyl)piperidin-4-yl]methyl}-2-phenylcyclopropanamine]",< 100 nM
6,"COc1ccc(CC2(CN[C@@H]3C[C@H]3c3ccccc3)CCN(CCC(=O)O)CC2)cn1 [Example 50, 3-[4-[(6-methoxypyridin-3-yl)methyl]-4-({[(1R,2S)-2-phenylcyclopropyl]amino}methyl)piperidin-1-yl]propanoic Acid]",< 100 nM
7,"CCOCC1(CN[C@@H]2C[C@H]2c2ccccc2)CCN(CCC(=O)O)CC1 [Example 51, 3-[4-(ethoxymethyl)-4-({[(1R,2S)-2-phenylcyclopropyl]amino}methyl)piperidin-1-yl]propanoic Acid]",< 100 nM
8,"O=C(O)CCN1CCC(CN[C@@H]2C[C@H]2c2ccccc2)(COCC2CCC2)CC1 [Example 52, 3-[4-[(cyclobutylmethoxy)methyl]-4-({[(1R,2S)-2-phenylcyclopropyl]amino}methyl)piperidin-1-yl]propanoic Acid]",< 100 nM
9,"O=C(O)CCN1CCC(CN[C@@H]2C[C@H]2c2ccccc2)(COC2CCCCC2)CC1 [Example 53, 3-[4-[(cyclohexyloxy)methyl]-4-({[(1R,2S)-2-phenylcyclopropyl]amino}methyl)piperidin-1-yl]propanoic Acid]",< 100 nM
10,"O=C(O)CCN1CCC(CN[C@@H]2C[C@H]2c2ccccc2)(Cc2ccc(F)cn2)CC1 [Example 54, 3-[4-[(5-fluoropyridin-2-yl)methyl]-4-({[(1R,2S)-2-phenylcyclopropyl]amino}methyl)piperidin-1-yl]propanoic Acid]",< 100 nM
11,"COc1ccc(CC2(CN[C@@H]3C[C@H]3c3ccccc3)CCN(CCC(=O)O)CC2)cc1 [Example 55, 3-[4-(4-methoxybenzyl)-4-({[(1R,2S)-2-phenylcyclopropyl]amino}methyl)piperidin-1-yl]propanoic Acid]",< 100 nM
12,"N#CCCN1CCC(CN[C@@H]2C[C@H]2c2ccccc2)(Cc2cccc(C(=O)O)c2)CC1 [Example 56, 3-{[1-(2-cyanoethyl)-4-({[(1R,2S)-2-phenylcyclopropyl]amino}methyl)piperidin-4-yl]methyl}benzoic Acid]",< 100 nM
13,"CN(C)CC(=O)N1CCC(CN[C@@H]2C[C@H]2c2ccccc2)(Cc2cccc(C(N)=O)c2)CC1 [Example 58, 3-{[1-[(dimethylamino)acetyl]-4-({[(1R,2S)-2-phenylcyclopropyl]amino}methyl)piperidin-4-yl]methyl}benzamide]",< 100 nM
14,"COc1cccc(CC2(CN[C@@H]3C[C@H]3c3ccccc3)CCN(CCC(=O)O)CC2)c1 [Example 59, 3-[4-(3-methoxybenzyl)-4-({[(1R,2S)-2-phenylcyclopropyl]amino}methyl)piperidin-1-yl]propanoic Acid]",< 100 nM
15,"CCOc1cccc(CC2(CN[C@@H]3C[C@H]3c3ccccc3)CCN(CCC(=O)O)CC2)c1 [Example 60, 3-[4-(3-ethoxybenzyl)-4-({[(1R,2S)-2-phenylcyclopropyl]amino}methyl)piperidin-1-yl]propanoic Acid]",< 100 nM
